Assay results: PMC3387161, “Small Molecules Targeted to a Non-Catalytic “RVxF” Binding Site of Protein Phosphatase-1 Inhibit HIV-1” (PLoS ONE, 2012)

How the values were obtained:
recombinant PP1α = target: T1, recombinant PP1α (Oryctolagus cuniculus, UniProt P62139); assay: Malachite green dephosphorylation of generic KT(pT)IRR peptide by PP1α; assay type: biochemical; conditions: 1H4 300 µM, KT(pT)IRR 3 µM; control 1.4
T1 construct: purchased New England Biolabs, Ipswich, MA
Protocol: To determine whether 1H4 has an effect on the enzymatic activity of PP1, we used recombinant PP1α and a generic substrate, phosphorylated KT(pT)IRR peptide which is recognized equally well by PP1 and PP2A [13]. The KT(pT)IRR peptide (3 µM) was efficiently dephosphorylated by PP1α (Fig. 6A, V0 = 1.4 µM·min^−1). […] We further investigated the effect of 1H4 on PP1 enzymatic activity by analyzing the initial velocity versus KT(pT)IRR peptide substrate concentration plots in the absence and presence of 1H4 that were approximated by Michaelis-Menten equation (Fig. 6B) and also visualized in Lineweaver-Burk representation (Fig. 6C).
Figure 6 1H4 has no effect on PP1 enzymatic activity. […] The amount of released phosphate was quantified by the absorbance and phosphate concentration was recalculated using standards. Initial velocity was calculated by linear regression in Prism. […] The amount of released phosphate was quantified with malachite green. The VMAX and Km were calculated by non-linear regression analysis for Michaelis-Menten equation in Prism. […]
Inhibition data were analyzed using GraphPad Prism 4 software (GraphPad Software, La Jolla, CA). The IC50 values were determined from a sigmoidal dose-response (variable slope) curve using four parameter logistic equation Y = Bottom+(Top-Bottom)/([…]). […]

[1] = target: PP1 association with Tat, NIPP1 and PNUTS (Homo sapiens, UniProt P62136); assay type: cell-based; conditions: Tat-transfected 293T cells, LC-MS peak amplitude
CMV promoter = assay: Control CMV promoter transcription (CMV-EGFP) in 293T cells; conditions: 10 µM
[2] = system: HIV-1 LTR-Lac Z reporter in 293T cells; assay: HIV-1 LTR-directed transcription in 293T cells transfected with Tat vector and HIV-1 LTR-LacZ reporter; assay type: cell-based; conditions: Human immunodeficiency virus 1, HEK-293T, read-out: IC50 for inhibition of HIV-1 LTR-directed transcription in 293T cells
[3] = system: interaction of Tat with PP1α; assay type: cell-based, human

Sequence of PP1 association with Tat, NIPP1 and PNUTS (P62136 2-330): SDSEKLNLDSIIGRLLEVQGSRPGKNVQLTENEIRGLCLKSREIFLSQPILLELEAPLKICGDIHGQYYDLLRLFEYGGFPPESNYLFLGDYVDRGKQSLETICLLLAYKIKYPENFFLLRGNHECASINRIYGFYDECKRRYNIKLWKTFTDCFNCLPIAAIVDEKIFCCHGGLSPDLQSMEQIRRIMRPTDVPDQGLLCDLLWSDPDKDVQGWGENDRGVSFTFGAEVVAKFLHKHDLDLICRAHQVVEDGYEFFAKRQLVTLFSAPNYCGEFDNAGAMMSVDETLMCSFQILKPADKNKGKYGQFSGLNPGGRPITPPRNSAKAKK
T1 sequence (P62139 whole entry): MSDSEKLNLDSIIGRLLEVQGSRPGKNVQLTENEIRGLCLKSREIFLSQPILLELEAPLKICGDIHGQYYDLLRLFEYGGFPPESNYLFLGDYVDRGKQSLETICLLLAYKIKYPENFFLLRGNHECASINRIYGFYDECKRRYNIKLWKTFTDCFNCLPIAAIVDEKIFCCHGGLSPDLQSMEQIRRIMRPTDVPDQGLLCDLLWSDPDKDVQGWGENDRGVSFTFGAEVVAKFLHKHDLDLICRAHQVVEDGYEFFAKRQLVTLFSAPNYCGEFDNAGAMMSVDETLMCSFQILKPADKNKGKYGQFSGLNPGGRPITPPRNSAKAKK

COCCNC(=O)COC(=O)c1c2c(nc3ccccc13)/C(=C/c1ccc(O)cc1)CCC2 [1H4]
V0 of KT(pT)IRR peptide dephosphorylation by PP1α in presence of compound (recombinant PP1α): 1.3 µM·min^-1 | Interaction of PP1 with PNUTS and NIPP1 [1]: without any effect on the interaction of PP1 with PNUTS or NIPP1 | Tat association with PP1 (microcystin precipitation) [1]: Tat association was reduced | Effect on transcription from control CMV promoter (CMV promoter): did not inhibit transcription from a control CMV promoter | IC50 [2]: 5 µM | Association of Tat with CDK9/cyclin T1 [3]: no effect on the association of Tat with CDK9/cyclin T1 | PP1α co-precipitation with Flag-Tat [3]: reduced the amount of PP1α-EGFP that co-precipitated with Tat
